In paper PMC6315298 (2018):

Tested on: Mango-II (RNA, aptamer) GCGUACGAAGGAGAGGAGAGGAAGAGGAGAGUACGC
Experiment: fluorescence binding

Row | SMILES | Kd
1 | CN1C=CC(=Cc2sc3ccccc3[n+]2CC(=O)NCCOCCOCCOCCNC(=O)CCCC[C@@H]2SC[C@@H]3NC(=O)N[C@@H]32)c2ccccc21 | 1.1 nM
2 | CN1C=CC(=C/C=C/c2sc3ccccc3[n+]2CC(=O)NCCOCCOCCOCCNC(=O)CCCC[C@@H]2SC[C@@H]3NC(=O)N[C@@H]32)c2ccccc21 | ~ 1.4 nM
